Experimental data as given in paper PMC6701825, “Antiproliferative and Antimigratory Effects of a Novel YAP–TEAD Interaction Inhibitor Identified Using in Silico Molecular Docking” (Journal of Medicinal Chemistry, 2019).

Experiments:
[1] = target: T1, recombinant TEAD1 (residues 194-411) (Homo sapiens, UniProt P28347); assay: Saturation transfer difference (STD) NMR binding to TEAD1; conditions: 2 mM CPD3.1, approximately 20 μM TEAD1
T1 construct: TEAD1 protein (residues 194–411) was prepared by solution cleavage of the GST tag; GST (N, cleaved yes); made in house; host or cells: SoluBL21 Escherichia coli
Method: Figure 6 Saturation transfer difference (STD) NMR analysis of compound 3.1 binding to TEAD1. Saturation-Transfer Difference (STD) NMR spectra showing the binding of CPD3.1 to recombinant TEAD1. (A) reference 1H NMR spectra of a mixture of CPD3.1 and TEAD1. (B) and (C) show the STD spectra of CPD3.1 in the absence and presence of TEAD1. The asterisk indicates buffer components or impurities in the sample. The three spectra were recorded in PBS made up in 40% H2O/60% D2O acquired at 700 MHz. The concentration of CPD3.1 was 2 mM, whereas the final concentration of TEAD1 was approximately 20 μM.
Binding of compounds to human TEAD was performed using STD NMR analysis. Briefly, TEAD1 protein (residues 194–411) was prepared by solution cleavage of the GST tag from recombinant GST–TEAD1 (194–411). GST–TEAD1 protein was eluted from glutathione beads by 40 mM reduced glutathione. GST tag was removed by incubation with PreScission protease (Sigma-Aldrich) at 4 °C for 18 h. Glutathione was removed by dialysis against 1000 volumes of 1× PBS at 4 °C for 4 h. Free GST protein was removed by incubation with glutathione resin. All NMR spectroscopy experiments were performed on a Bruker Avance III HD 700 MHz spectrometer equipped with a 1.7 mm inverse triple-resonance microcryocoil probe. NMR samples were prepared in 40 μL with PBS pH 7.4 in 60% D2O (uncorrected for D2O). […]

[2] = target: T2, binding of endogenous YAP protein to recombinant GST-TEAD1 (Homo sapiens, UniProt P28347); assay: In vitro GST-TEAD1-YAP interaction (pull-down) assay; conditions: 200 μM compound, HEK293 lysate, 18 h at 4 °C, Western blot
T2 construct: human TEAD1 (corresponding to residues 194–411); made in house; host or cells: SoluBL21 Escherichia coli (GST-TEAD1); HEK293 lysate (endogenous YAP)
Text: We next tested the ability of these four compounds to inhibit the binding of endogenous YAP protein present in HEK293 whole cell lysate to recombinant glutathione S-transferase (GST)–TEAD1 protein immobilized on glutathione resin beads. […] Inhibition of YAP binding to TEAD1 in the presence of CPD3 was further confirmed using co-immunoprecipitation assays using mammalian cell lysates prepared from HeLa expressing myc-TEAD1 and GFP–YAP. […] We next set up a 96-well plate-based YAP–TEAD interaction assay to determine the IC50 of the inhibition of the YAP–TEAD complex by CPD3.
The DNA fragment encoding human TEAD1 (corresponding to residues 194–411) was amplified by polymerase chain reaction (PCR) and cloned into the BamH1 and EcoR1 sites of vector pGEX-6P1, in frame with the terminal GST tag. GST–TEAD1 fusion protein expression was induced in SoluBL21s Escherichia coli by culture at 25 °C in the presence of 0.2 mM IPTG for 18 h. […] Bound proteins were eluted by boiling in Laemmli sample buffer and YAP and GST–TEAD levels quantified by Western blotting with an anti-YAP antibody (Cell Signaling; #4912) and an anti-GST antibody (Cell Signaling; #5475S).

[3] = target: T3, myc-TEAD1:GFP-YAP complexes (Homo sapiens, UniProt P28347); assay: Co-immunoprecipitation of myc-TEAD1 and GFP-YAP; assay type: binding; conditions: 200 μM CPD3
T3 construct: #17843 (GFP-YAP1); host or cells: HeLa
Method: Figure 1 BUDE screening-identified compound 3 for TEAD inhibition. (A) HeLa cells were stably transduced with a lentiviral viral vector containing 8×TEAD-secreted nanoluciferase reporter gene (TEAD-NLUC). Cells were transfected with non-targeting siRNA (siNEG), siRNA targeting YAP (siYAP), control adenoviral vector or an adenovirus expression constitutively active YAPS127A (Ad:YAP). Culture media were conditioned for 6 h and assayed for secreted nanoluciferase activity (n = 3). (B) HeLa cells stably transduced with TEAD-NLUC were treated with 100 μM of indicated compound for 6 h. Cell conditioned media were assayed for nanoluciferase activity (n = 3). […] (D) Recombinant GST-TEAD1 protein bound to glutathione resin was incubated with 200 μM of the indicated compounds and HEK293 cell lysate containing endogenous YAP protein for 18 h at 4 °C. The resin was washed, and bound YAP eluted and quantified by Western blotting (n = 2). […] Co-immunoprecipitated YAP or TEAD was quantified by Western blotting. […]
HeLa cells were transiently transfected with either pRK5-myc-TEAD1 (Addgene #33109) or pEGFP-C3-YAP1 (Addgene #17843). […] Following washing, immunoprecipitated proteins were eluted by boiling in sodium dodecyl sulfate (SDS) buffer (50 mM Tris pH 6.8, 20% glycerol, 2% SDS) and analyzed by Western blotting.

T3 sequence (P28347 whole entry, one chain of several): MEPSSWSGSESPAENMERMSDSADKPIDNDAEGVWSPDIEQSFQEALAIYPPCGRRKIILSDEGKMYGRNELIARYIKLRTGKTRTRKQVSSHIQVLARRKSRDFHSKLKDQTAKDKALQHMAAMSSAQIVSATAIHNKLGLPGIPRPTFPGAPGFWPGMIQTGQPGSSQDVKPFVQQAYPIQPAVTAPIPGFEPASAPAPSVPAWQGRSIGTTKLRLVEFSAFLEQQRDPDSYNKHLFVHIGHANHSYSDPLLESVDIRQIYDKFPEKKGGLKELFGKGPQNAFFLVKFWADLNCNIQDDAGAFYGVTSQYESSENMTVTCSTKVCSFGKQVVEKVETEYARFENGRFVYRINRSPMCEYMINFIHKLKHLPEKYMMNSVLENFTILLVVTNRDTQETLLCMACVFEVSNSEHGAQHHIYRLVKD
T2 sequence (P28347 209-426): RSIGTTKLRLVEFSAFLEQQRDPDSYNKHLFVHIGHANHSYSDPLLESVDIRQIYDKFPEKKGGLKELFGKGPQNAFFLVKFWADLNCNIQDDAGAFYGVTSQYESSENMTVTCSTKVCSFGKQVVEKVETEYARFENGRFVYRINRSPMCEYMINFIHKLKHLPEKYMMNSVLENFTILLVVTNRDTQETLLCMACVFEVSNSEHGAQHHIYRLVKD
T1 sequence (P28347 209-426): as above

SMILES	binding to purified recombinant TEAD protein (STD NMR) [1]	inhibition of binding of YAP protein to GST-TEAD1 [2]	binding of GFP-YAP to immunoprecipitated myc-TEAD1 (myc-Trap co-IP) [3]	binding of myc-TEAD1 to affinity-purified GFP-YAP (GFP-Trap co-IP) [3]
Cc1ccc2c(c1)c1c3n2CCNC3CCC1 (stereo not shown) [CPD3.1]	confirmed	–	–	–
Cc1ccc2c(c1)c1c3n2CCN(CC(O)CN2CCN(C(=O)c4ccco4)CC2)C3CCC1 (stereo not shown) [CPD3]	–	inhibit the binding of YAP protein	inhibited binding of GFP–YAP	inhibited binding of myc-TEAD1
